Laboratory results published in PubChem BioAssay (NCI).
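Cultured in 96-well plates, cells were exposed to test compound for 48 hours across five concentrations. The concentration for 50% growth inhibition is given as GI50. TGI: total growth inhibition.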

Experiments:
Experiment in all cases: NCI-60 cell line screen, 48 h
MOLT-4 leukemia = test system: MOLT-4 leukemia
NCI-H460 lung = test system: NCI-H460 lung
BT-549 breast = test system: BT-549 breast
SNB-19 CNS = test system: SNB-19 CNS
SF-539 CNS = test system: SF-539 CNS
MDA-MB-435 = test system: MDA-MB-435
HCT-15 colon = test system: HCT-15 colon
HOP-92 NSCLC = test system: HOP-92 NSCLC
UO-31 renal = test system: UO-31 renal
SF-295 CNS = test system: SF-295 CNS
MCF7 breast = test system: MCF7 breast
CAKI-1 renal = test system: CAKI-1 renal
NCI-H226 lung = test system: NCI-H226 lung
OVCAR-3 ovarian = test system: OVCAR-3 ovarian
U251 CNS = test system: U251 CNS
SF-268 CNS = test system: SF-268 CNS
IGROV1 ovarian = test system: IGROV1 ovarian
UACC-257 melanoma = test system: UACC-257 melanoma
CCRF-CEM leukemia = test system: CCRF-CEM leukemia
NCI-H522 lung = test system: NCI-H522 lung
SN12C renal = test system: SN12C renal
LOX IMVI melanoma = test system: LOX IMVI melanoma
MDA-MB-231 breast = test system: MDA-MB-231 breast
SK-MEL-28 melanoma = test system: SK-MEL-28 melanoma
EKVX NSCLC = test system: EKVX NSCLC
SK-OV-3 ovarian = test system: SK-OV-3 ovarian
OVCAR-8 ovarian = test system: OVCAR-8 ovarian
TK-10 renal = test system: TK-10 renal
UACC-62 melanoma = test system: UACC-62 melanoma
OVCAR-5 ovarian = test system: OVCAR-5 ovarian
HCC-2998 colon = test system: HCC-2998 colon
OVCAR-4 ovarian = test system: OVCAR-4 ovarian
HCT-116 colon = test system: HCT-116 colon
NCI/ADR-RES ovarian = test system: NCI/ADR-RES ovarian
HS 578T breast = test system: HS 578T breast
T-47D breast = test system: T-47D breast
SW-620 colon = test system: SW-620 colon
NCI-H23 lung = test system: NCI-H23 lung
A549 NSCLC = test system: A549 NSCLC
ACHN renal = test system: ACHN renal
RPMI-8226 leukemia = test system: RPMI-8226 leukemia
HT29 colon = test system: HT29 colon
SNB-75 CNS = test system: SNB-75 CNS
MALME-3M melanoma = test system: MALME-3M melanoma
SR leukemia = test system: SR leukemia
HOP-62 NSCLC = test system: HOP-62 NSCLC
KM12 colon = test system: KM12 colon
COLO 205 colon = test system: COLO 205 colon
SK-MEL-5 melanoma = test system: SK-MEL-5 melanoma
DU-145 prostate = test system: DU-145 prostate
RXF 393 renal = test system: RXF 393 renal
A498 renal = test system: A498 renal
PC-3 prostate = test system: PC-3 prostate
M14 melanoma = test system: M14 melanoma
SK-MEL-2 melanoma = test system: SK-MEL-2 melanoma
K-562 leukemia = test system: K-562 leukemia
HL-60(TB) leukemia = test system: HL-60(TB) leukemia

Q: `C#CCNC(=O)CC[C@@H](C)[C@H]1CC[C@H]2[C@@H]3CC[C@@H]4CC(=O)CC[C@]4(C)[C@H]3CC[C@]12C` was tested. Which GI50 (MOLT-4 leukemia) did it give?
A: 10.3 µM

Q: And the TGI (MOLT-4 leukemia)?
A: 43.7 µM

Q: What about the GI50 (NCI-H460 lung) of the same compound?
A: 22 µM

Q: What about the TGI (NCI-H460 lung) of the same compound?
A: 51.2 µM

Q: What about the GI50 (BT-549 breast) of the same compound?
A: 13.7 µM

Q: And the TGI (BT-549 breast)?
A: 36.7 µM

Q: What about the GI50 (SNB-19 CNS) of the same compound?
A: 24.3 µM

Q: And the TGI (SNB-19 CNS)?
A: 71 µM

Q: What about the GI50 (SF-539 CNS) of the same compound?
A: 14.1 µM

Q: What about the TGI (SF-539 CNS) of the same compound?
A: 30.4 µM

Q: What about the GI50 (MDA-MB-435) of the same compound?
A: 18.7 µM

Q: And the TGI (MDA-MB-435)?
A: 60.1 µM

Q: What about the GI50 (HCT-15 colon) of the same compound?
A: 12.1 µM

Q: And the TGI (HCT-15 colon)?
A: 36.3 µM

Q: What about the GI50 (HOP-92 NSCLC) of the same compound?
A: 2.54 µM

Q: What about the TGI (HOP-92 NSCLC) of the same compound?
A: 10.3 µM

Q: What about the GI50 (UO-31 renal) of the same compound?
A: 0.192 µM

Q: And the TGI (UO-31 renal)?
A: 0.424 µM

Q: What about the GI50 (SF-295 CNS) of the same compound?
A: 19.3 µM

Q: What about the TGI (SF-295 CNS) of the same compound?
A: 49.4 µM

Q: And the GI50 (MCF7 breast)?
A: 12 µM

Q: What about the TGI (MCF7 breast) of the same compound?
A: 52.7 µM

Q: What about the GI50 (CAKI-1 renal) of the same compound?
A: 12.8 µM

Q: And the TGI (CAKI-1 renal)?
A: 29.2 µM

Q: And the GI50 (NCI-H226 lung)?
A: 14.8 µM

Q: And the TGI (NCI-H226 lung)?
A: 36.2 µM

Q: And the GI50 (OVCAR-3 ovarian)?
A: 13.8 µM

Q: And the TGI (OVCAR-3 ovarian)?
A: 36.1 µM

Q: And the GI50 (U251 CNS)?
A: 15.8 µM

Q: What about the TGI (U251 CNS) of the same compound?
A: 39.4 µM

Q: And the GI50 (SF-268 CNS)?
A: 17.5 µM

Q: And the TGI (SF-268 CNS)?
A: 44.4 µM

Q: What about the GI50 (IGROV1 ovarian) of the same compound?
A: 0.649 µM

Q: And the TGI (IGROV1 ovarian)?
A: 3.13 µM

Q: And the GI50 (UACC-257 melanoma)?
A: 13.2 µM

Q: And the TGI (UACC-257 melanoma)?
A: 42.3 µM

Q: What about the GI50 (CCRF-CEM leukemia) of the same compound?
A: 4.39 µM

Q: What about the TGI (CCRF-CEM leukemia) of the same compound?
A: 24.1 µM

Q: And the GI50 (NCI-H522 lung)?
A: 3.69 µM

Q: And the TGI (NCI-H522 lung)?
A: 16.6 µM

Q: What about the GI50 (SN12C renal) of the same compound?
A: 13.2 µM

Q: And the TGI (SN12C renal)?
A: 32.1 µM

Q: And the GI50 (LOX IMVI melanoma)?
A: 17.5 µM

Q: And the TGI (LOX IMVI melanoma)?
A: 39.8 µM

Q: And the GI50 (MDA-MB-231 breast)?
A: 16.5 µM

Q: What about the TGI (MDA-MB-231 breast) of the same compound?
A: 38.9 µM

Q: What about the GI50 (SK-MEL-28 melanoma) of the same compound?
A: 16.8 µM

Q: And the TGI (SK-MEL-28 melanoma)?
A: 36 µM

Q: What about the GI50 (EKVX NSCLC) of the same compound?
A: 20.1 µM

Q: And the TGI (EKVX NSCLC)?
A: 57.9 µM

Q: What about the GI50 (SK-OV-3 ovarian) of the same compound?
A: 28.8 µM

Q: What about the TGI (SK-OV-3 ovarian) of the same compound?
A: > 100 µM

Q: And the GI50 (OVCAR-8 ovarian)?
A: 6.06 µM

Q: And the TGI (OVCAR-8 ovarian)?
A: 32.8 µM

Q: What about the GI50 (TK-10 renal) of the same compound?
A: 18 µM

Q: What about the TGI (TK-10 renal) of the same compound?
A: 44.5 µM

Q: What about the GI50 (UACC-62 melanoma) of the same compound?
A: 9.02 µM

Q: What about the TGI (UACC-62 melanoma) of the same compound?
A: 28.6 µM

Q: And the GI50 (OVCAR-5 ovarian)?
A: 22.1 µM

Q: And the TGI (OVCAR-5 ovarian)?
A: 47.1 µM

Q: And the GI50 (HCC-2998 colon)?
A: 19.7 µM

Q: And the TGI (HCC-2998 colon)?
A: 54.1 µM

Q: And the GI50 (OVCAR-4 ovarian)?
A: 14.9 µM

Q: What about the TGI (OVCAR-4 ovarian) of the same compound?
A: 52.6 µM

Q: And the GI50 (HCT-116 colon)?
A: 12.9 µM

Q: What about the TGI (HCT-116 colon) of the same compound?
A: 52 µM

Q: And the GI50 (NCI/ADR-RES ovarian)?
A: 16.9 µM

Q: What about the TGI (NCI/ADR-RES ovarian) of the same compound?
A: 45.3 µM

Q: And the GI50 (HS 578T breast)?
A: 21.3 µM

Q: What about the TGI (HS 578T breast) of the same compound?
A: 77.3 µM

Q: And the GI50 (T-47D breast)?
A: 8 µM

Q: What about the TGI (T-47D breast) of the same compound?
A: 68.2 µM

Q: What about the GI50 (SW-620 colon) of the same compound?
A: 17.8 µM

Q: What about the TGI (SW-620 colon) of the same compound?
A: 43.7 µM

Q: And the GI50 (NCI-H23 lung)?
A: 19.6 µM

Q: What about the TGI (NCI-H23 lung) of the same compound?
A: 75.7 µM

Q: And the GI50 (A549 NSCLC)?
A: 17.4 µM

Q: What about the TGI (A549 NSCLC) of the same compound?
A: > 100 µM

Q: And the GI50 (ACHN renal)?
A: 14.9 µM

Q: What about the TGI (ACHN renal) of the same compound?
A: 32.4 µM

Q: And the GI50 (RPMI-8226 leukemia)?
A: 1.82 µM

Q: What about the TGI (RPMI-8226 leukemia) of the same compound?
A: 19.1 µM

Q: What about the GI50 (HT29 colon) of the same compound?
A: 12.7 µM

Q: And the TGI (HT29 colon)?
A: 34.5 µM

Q: What about the GI50 (SNB-75 CNS) of the same compound?
A: 10.9 µM

Q: And the TGI (SNB-75 CNS)?
A: 33.5 µM

Q: And the GI50 (MALME-3M melanoma)?
A: 14 µM

Q: And the TGI (MALME-3M melanoma)?
A: 31.7 µM

Q: And the GI50 (SR leukemia)?
A: 3.17 µM

Q: And the TGI (SR leukemia)?
A: 33.3 µM

Q: And the GI50 (HOP-62 NSCLC)?
A: 16.6 µM

Q: What about the TGI (HOP-62 NSCLC) of the same compound?
A: 40.4 µM

Q: What about the GI50 (KM12 colon) of the same compound?
A: 18.8 µM

Q: And the TGI (KM12 colon)?
A: 70.2 µM

Q: What about the GI50 (COLO 205 colon) of the same compound?
A: 15.7 µM

Q: What about the TGI (COLO 205 colon) of the same compound?
A: 32.5 µM

Q: And the GI50 (SK-MEL-5 melanoma)?
A: 8.71 µM

Q: And the TGI (SK-MEL-5 melanoma)?
A: 23.2 µM

Q: And the GI50 (DU-145 prostate)?
A: 14.8 µM

Q: And the TGI (DU-145 prostate)?
A: 35.1 µM

Q: What about the GI50 (RXF 393 renal) of the same compound?
A: 14 µM

Q: And the TGI (RXF 393 renal)?
A: 31.7 µM

Q: What about the GI50 (A498 renal) of the same compound?
A: 25 µM

Q: And the TGI (A498 renal)?
A: > 100 µM

Q: What about the GI50 (PC-3 prostate) of the same compound?
A: 2.91 µM

Q: And the TGI (PC-3 prostate)?
A: 24.2 µM

Q: What about the GI50 (M14 melanoma) of the same compound?
A: 14.6 µM

Q: And the TGI (M14 melanoma)?
A: 37.2 µM

Q: What about the GI50 (SK-MEL-2 melanoma) of the same compound?
A: 16.9 µM

Q: And the TGI (SK-MEL-2 melanoma)?
A: 35.8 µM

Q: And the GI50 (K-562 leukemia)?
A: 5.19 µM

Q: And the TGI (K-562 leukemia)?
A: 44.3 µM

Q: And the GI50 (HL-60(TB) leukemia)?
A: 3.47 µM

Q: What about the TGI (HL-60(TB) leukemia) of the same compound?
A: 18 µM
